Read-outs that look alike come from different tables or passages of the source.

Results on 29 compounds are retold here after patent US20070185115A1, “Novel ureido-and amido-pyrazolone derivatives” (Aston University, priority 2003, published 2007).

One experiment has as its target T1, CCKB receptor (Cavia porcellus, UniProt H0VZC5).
T1 construct: Male guinea pig brain tissues were prepared according to the modified method described by Saita et al; from tissue; host or cells: guinea pig cerebral cortex membranes
T1 sequence (H0VZC5 1-426): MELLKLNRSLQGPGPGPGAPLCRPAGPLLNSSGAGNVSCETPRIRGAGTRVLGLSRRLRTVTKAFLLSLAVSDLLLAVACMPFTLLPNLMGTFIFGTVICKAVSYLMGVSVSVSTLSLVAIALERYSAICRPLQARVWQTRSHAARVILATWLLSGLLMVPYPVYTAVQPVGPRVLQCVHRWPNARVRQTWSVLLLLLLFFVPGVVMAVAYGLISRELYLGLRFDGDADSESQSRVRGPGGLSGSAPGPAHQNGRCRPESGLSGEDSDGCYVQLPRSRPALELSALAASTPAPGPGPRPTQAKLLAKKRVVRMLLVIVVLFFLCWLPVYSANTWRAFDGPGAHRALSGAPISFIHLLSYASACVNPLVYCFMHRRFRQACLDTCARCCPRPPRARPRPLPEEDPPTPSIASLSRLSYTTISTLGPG
As to the kind of experiment: 125I-CCK-8 receptor binding assay, CCKB (guinea pig cerebral cortex membranes). The method, then:
(§1) Pharmacological Methods—^[125]I-CCK-8 Receptor Binding Assay
(§2) CCKA and CCKB receptor binding assays were performed, by using guinea pig cerebral cortex (CCKB) or rat pancreas (CCKA). Male guinea pig brain tissues were prepared according to the modified method described by Saita et al, [(1994), Characterization of YM022: its CCKB/gastrin receptor binding profile and antagonism to CCK-8-induced Ca2+mobilization., Eur. J. PharmacoL,269, 249-254]. Pancreatic membranes were prepared in a similar way but by Charpentier et al, [(1988), Cyclic cholecystokinin analogues with high selectivity for central receptors., Proc Natl Acad Sci USA, 85, 1968-1972]. For the in vivo CCK binding assay tissues were homogenised in ice cold sucrose (0.32 M, 25 ml) for 15 strokes at 500 rpm and centrifuged at 13000 rpm for 10 mins. The supernatant was re-centrifuged at 13000 rpm for 20 mins. The resulting pellet was re-dispersed to the required volume of buffer at 500 rpm and stored in aliquots at […].
(§3) Binding was achieved using a.radioligand ^125I-Bolton-Hunter labeled CCK, NEN at 25 pM. The samples were incubated {with membranes (0.1 mg/ml)} in 20 mM Hepes, 1 mM EGTA, 5 mM MgCl2, 150 mm NaCl, 0.25 mg/ml bacitracin at pH 6.5 for 2 hrs at RT and then […] by centrifugation at 1100 rpm for 5 minutes. The membrane pellets were washed twice with water and the bound radioactivity was measured in a Packard Cobra Auto-gamma counter (B5005). All binding assays were carried out with L-365, 260 (Bock, M. G., et. al., Benzodiazepine gastrin and brain cholecystokinin receptor ligands. L-365,260, J. Med. Chem. 1989, 32, 14-24) as an internal non-specific standard. Controls (no compound) were also added. All samples were made in duplicate and repeated twice. All compounds were initially screened for percentage inhibition at 20 μm.

The next experiment addresses T2, CCKA receptor (Rattus norvegicus, UniProt P30551).
T2 construct: Pancreatic membranes were prepared in a similar way but by Charpentier et al; from tissue; host or cells: rat pancreas membranes
T2 sequence (P30551 1-444): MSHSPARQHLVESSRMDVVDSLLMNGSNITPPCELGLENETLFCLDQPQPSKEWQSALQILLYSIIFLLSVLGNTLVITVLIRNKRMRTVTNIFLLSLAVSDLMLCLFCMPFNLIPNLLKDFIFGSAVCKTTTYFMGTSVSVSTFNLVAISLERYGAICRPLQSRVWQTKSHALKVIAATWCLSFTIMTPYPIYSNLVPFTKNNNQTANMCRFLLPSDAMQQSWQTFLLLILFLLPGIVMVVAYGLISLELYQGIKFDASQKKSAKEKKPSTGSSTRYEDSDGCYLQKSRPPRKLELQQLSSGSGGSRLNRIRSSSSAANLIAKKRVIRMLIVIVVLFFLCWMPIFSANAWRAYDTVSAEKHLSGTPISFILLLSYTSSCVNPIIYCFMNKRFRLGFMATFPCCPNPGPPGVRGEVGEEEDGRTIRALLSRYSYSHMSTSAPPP
As to the kind of experiment: 125I-CCK-8 receptor binding assay, CCKA (rat pancreas membranes). The conditions noted are these: for Ratio A/B: ratio of CCKB and CCKA IC50 values. The method, then: as §1, §2, §3

The mark [1] stands for this setting: Table 3, diphenyl pyrazolyl ureas, guinea pig cerebral cortex, 125I-Bolton-Hunter CCK 25 pM, read-out: IC50 CCKB.
Where [2] appears, read: Table 2, phenylpyrazolinone amides, guinea pig cerebral cortex, 125I-Bolton-Hunter CCK 25 pM, read-out: IC50 CCKB.
[3] abbreviates: Table 2, phenylpyrazolinone amides, rat pancreas, 125I-Bolton-Hunter CCK 25 pM, read-out: IC50 CCKA.
The mark [4] stands for this setting: Table 3, diphenyl pyrazolyl ureas, rat pancreas, 125I-Bolton-Hunter CCK 25 pM, read-out: IC50 CCKA.
The mark [5] stands for this setting: Table 1, phenyl pyrazolinone ureas, guinea pig cerebral cortex, 125I-Bolton-Hunter CCK 25 pM, read-out: IC50 CCKB.
[6] abbreviates: Table 4, diphenyl pyrazolinone amides, guinea pig cerebral cortex, 125I-Bolton-Hunter CCK 25 pM, read-out: IC50 CCKB.
The mark [7] stands for this setting: Table 4, diphenyl pyrazolinone amides, rat pancreas, 125I-Bolton-Hunter CCK 25 pM, read-out: IC50 CCKA.

`Cc1ccccc1NC(=O)Nc1c(C)n(-c2ccccc2)n(-c2ccccc2)c1=O` [Example 30]: on CCKB receptor (setting [1]), the half-inhibitory concentration (IC50) (as a rule, the concentration needed to halve the response being measured) is > 20 µM. In the case of `Cc1c(NC(=O)CCc2c[nH]c3ccccc23)c(=O)n(-c2ccccc2)n1C` [Example 17, N-(1,5-Dimethyl-3-oxo-2-phenyl-2 3dihydro-1H-pyrazol-4yl)-3-(1H-indol-3-yl)propanamide], the results for the IC50 at CCKB receptor (setting [2]) and at CCKA receptor (setting [3]) were 4 µM and 1 µM, respectively. On CCKA receptor (Table 2), the “Ratio A/B” value is reported as 4. Take `Cc1cccc(NC(=O)Nc2c(C)n(-c3ccccc3)n(-c3ccccc3)c2=O)c1` [Example 22, N-(5-Methyl-3-oxo-1,2-diphenyl-2,3-dihydro-1H-pyrazol4-yl)N′-3-methylphenylurea]: the half-maximal inhibitory concentration (IC50) is 0.025 µM at CCKB receptor (setting [1]) and 0.02 µM at CCKA receptor (setting [4]). As for `Cc1c(NC(=O)Nc2ccccc2[N+](=O)[O-])c(=O)n(-c2ccccc2)n1-c1ccccc1` [Example 25, N-(5-Methyl-3-oxo-1,2-diphenyl-2,3-dihydro-1H-pyrazol-4yl)N′-2-nitrophenylurea], the half-maximal inhibitory concentration (IC50) on CCKB receptor (setting [1]) amounted to 7.5 µM.

On to `Cc1c(NC(=O)NC(C)(C)C)c(=O)n(-c2ccccc2)n1-c1ccccc1` [Example 35], for which, on CCKB receptor (setting [1]), the half-maximal inhibitory concentration (IC50) came to 1 µM.

Regarding `Cc1c(NC(=O)Nc2ccc(Cl)cc2)c(=O)n(-c2ccccc2)n1C` [Example 3, N-(4-chlorophenyl)-N′-(1,5-dihiethyl-3-oxo-2-phenyl-2,3-dihydro-1H-pyrazol-4-yl)urea], on CCKB receptor (setting [5]), the IC50 worked out at 2.5 µM. On to `Cc1c(NC(=O)NC2CCCCC2)c(=O)n(-c2ccccc2)n1C` [Example 14], for which the IC50 on CCKB receptor (setting [5]) is > 10 µM.

For `Cc1c(NC(=O)Nc2ccc(Cl)cc2)c(=O)n(-c2ccccc2)n1-c1ccccc1` [Example 32], the IC50 on CCKB receptor (setting [1]) is > 20 µM. For `COc1cccc(NC(=O)Nc2c(C)n(-c3ccccc3)n(-c3ccccc3)c2=O)c1` [Example 21, N-(5-methyl-3-oxo-1,2-diphenyl-2,3-dihydro-1H-pyrazol-4-yl)N′-3-methoxyphenylurea], the half-inhibitory concentration (IC50) on CCKB receptor (setting [1]) was determined as 0.035 µM; at CCKA receptor (setting [4]), 0.01 µM. Take `Cc1c(NC(=O)CCc2c[nH]c3ccccc23)c(=O)n(-c2ccccc2)n1-c1ccccc1` [Example 39, N-(5-Methyl-3-oxo-1,2-diphenyl-2,3-dihydro-1H-pyrazol-4-yl)-3-(1H-indol-3-yl)propanamide]: the IC50 on CCKB receptor (setting [6]) was 2 µM; at CCKA receptor (setting [7]), 0.025 µM. In addition, the “Ratio A/B” value at CCKA receptor (Table 4) is on record as 80. As to `Cc1c(NC(=O)Cc2c[nH]c3ccccc23)c(=O)n(-c2ccccc2)n1C` [Example 19], the figures for the IC50 on CCKB receptor (setting [2]) and on CCKA receptor (setting [3]) were 9 µM and 2 µM, respectively. As to `Cc1c(NC(=O)c2cc3ccccc3[nH]2)c(=O)n(-c2ccccc2)n1C` [Example 16], the concentration for half-maximal inhibition (IC50) on CCKB receptor (setting [2]) stood at 0.9 µM; at CCKA receptor (setting [3]) it was 0.08 µM. Further, the “Ratio A/B” value on CCKA receptor (Table 2) is reported as 11.3. As for `Cc1ccc(NC(=O)Nc2c(C)n(C)n(-c3ccccc3)c2=O)cc1` [Example 9], the half-maximal inhibitory concentration (IC50) at CCKB receptor (setting [5]) is > 20 µM. For the compound `Cc1c(NC(=O)Nc2cccc(Cl)c2)c(=O)n(-c2ccccc2)n1C` [Example 10], the IC50 on CCKB receptor (setting [5]) is > 10 µM. On to `Cc1c(NC(=O)Cc2c[nH]c3ccccc23)c(=O)n(-c2ccccc2)n1-c1ccccc1` [Example 38], for which the half-inhibitory concentration (IC50) on CCKB receptor (setting [6]) came out at 2.5 µM; on CCKA receptor (setting [7]) it was 0.02 µM. The “Ratio A/B” value on CCKA receptor (Table 4) turned out to be 125. Taken in the same sequence, the figures for `Cc1c(NC(=O)c2cc3ccccc3[nH]2)c(=O)n(-c2ccccc2)n1-c1ccccc1` [Example 36, N-(5-Methyl-3-oxo-1,2-diphenyl-2,3dihydro-1H-pyrazol-4yl)-1H-indole-2-carboxamide] were 0.03 µM, 0.02 µM and 1.5. For the compound `Cc1c(NC(=O)c2c[nH]c3ccccc23)c(=O)n(-c2ccccc2)n1C` [Example 18], the IC50 at CCKB receptor worked out at 15 µM; on CCKA receptor, 2 µM.

As for `COc1ccc(NC(=O)Nc2c(C)n(-c3ccccc3)n(-c3ccccc3)c2=O)cc1` [Example 29], the IC50 at CCKB receptor (setting [1]) is > 20 µM. As for `Cc1c(NC(=O)NC2CCCCC2)c(=O)n(-c2ccccc2)n1-c1ccccc1` [Example 27], on CCKB receptor (setting [1]), the IC50 came out at 0.85 µM.

For `Cc1c(NC(=O)Nc2cccc3ccccc23)c(=O)n(-c2ccccc2)n1-c1ccccc1` [Example 34], the half-inhibitory concentration (IC50) on CCKB receptor (setting [1]) is > 20 µM. `Cc1c(NC(=O)CCCc2c[nH]c3ccccc23)c(=O)n(-c2ccccc2)n1-c1ccccc1` [Example 40, N-(5Methyl-3-oxo-1,2-diphenyl-2,3-dihydro-1H-pyrazol-4yl)-4-(1H-indol-3-yl)butanamide]: the “Ratio A/B” value on CCKA receptor (Table 4) came out at 1. As to `Cc1c(NC(=O)Nc2ccccc2[N+](=O)[O-])c(=O)n(-c2ccccc2)n1C` [Example 12], the IC50 at CCKB receptor (setting [5]) was > 20 µM.

`Cc1c(NC(=O)Nc2ccc(Br)cc2)c(=O)n(-c2ccccc2)n1-c1ccccc1` [Example 24, N-(4-Bromophenyl)-N′-(5-methyl-3-oxo-1,2-diphenyk-2,3-dihydro-1H-pyrazol-4-yl)urea]: the IC50 on CCKB receptor (setting [1]) is > 20 µM. For `Cc1c(NC(=O)Nc2ccccc2)c(=O)n(-c2ccccc2)n1-c1ccccc1` [Example 26, N-(5-Methyl-3oxo-1,2diphenyl-2,3-dihydro-1H-pyrazol4-yl)—N′-phenylurea], the half-maximal inhibitory concentration (IC50) on CCKB receptor (setting [1]) turned out to be 3 µM. Same read-out and setting: under `Cc1ccc(NC(=O)Nc2c(C)n(-c3ccccc3)n(-c3ccccc3)c2=O)cc1` [Example 31] stands > 20 µM. On to `Cc1cccc(NC(=O)Nc2c(C)n(C)n(-c3ccccc3)c2=O)c1` [Example 8], for which the half-maximal inhibitory concentration (IC50) at CCKB receptor (setting [5]) is 5 µM. `Cc1c(NC(=O)c2c[nH]c3ccccc23)c(=O)n(-c2ccccc2)n1-c1ccccc1` [Example 37, N-(5-Methyl-3-oxo-1,2-diphenyl-2,3-dihydro-1H-pyrazol-4yl)-1H-indole-3-carboxamide]: the concentration for half-maximal inhibition (IC50) on CCKB receptor (setting [6]) was determined as 3.5 µM; on CCKA receptor (setting [7]), 2 µM. Besides, the “Ratio A/B” value at CCKA receptor (Table 4) stood at 1.8. In the case of `COc1ccc(NC(=O)Nc2c(C)n(C)n(-c3ccccc3)c2=O)cc1` [Example 6], at CCKB receptor (setting [5]), the concentration for half-maximal inhibition (IC50) was > 10 µM. With `Cc1c(NC(=O)Nc2ccc(Br)cc2)c(=O)n(-c2ccccc2)n1C` [Example 11], the IC50 at CCKB receptor (setting [5]) was 7 µM.
